The text below walks through data of patent US20160304970A1, “GENE BIOMARKER TO DIAGNOSE METASTIC LIVER CANCER AND METHODS FOR TARGETING THE SAME” (University of Southern California, priority 2015, published 2016).

Series [1] deals with CD133 (+) Huh7 cells. Kind of series: CD133 cell viability screening (luminescence, CellTiter-Glo). The following applies: Homo sapiens, Huh-7. It counts as cell-based. As to the method:
(§1) CD133(+) and CD133(−) Huh7 cells were freshly sorted using the MACS CD133 micro bead kit (Miltenyi Biotec, 130-050-801) and were seeded in 100 μl medium containing 5000 cells per well in a 96-well plate. Once the cells attached, the FDA approved drug library was added to each well to a final concentration of 20 μg/ml in duplicate. After incubation for 48 hours, the cell viability was determined by a luminescence assay. […] After 16 hours, 1 μl of a […] drug solution was individually added to the 96 wells, resulting in a 20 μg/ml final concentration for most compounds. After 48 hours, CellTiter-Glo® Reagent (G8233, Promega) was added and the luminescence signal was measured with an automated plate reader. The raw data for each well was background-corrected by DMSO control wells on the same plate.
Freshly sorted CD133 (+) Huh7 or mouse TICs were plated in 100 μl of medium containing 5000 cells per well in a 96-well plate. After 16 hours, 0.5 μl of a 2 μg/ml, 1 μg/ml, 0.2 μg/ml, 0.1 μg/ml, 0.02 μg/ml, or 0.01 μg/ml compound was added to each well in triplicate, resulting in a 10 μg/ml, 5 μg/ml, 1 μg/ml, 0.5 μg/ml, 0.1 μg/ml, and 0.05 μg/ml final concentration for most compounds, respectively. After 48 hours, the cells were either measured for cell viability by Cell-Glo® Reagent (Promega), or fixed with 1% PFA (paraformaldehyde) and stained with DAPI for high-throughput screening.

Assay in series [2]: as above
The following applies: human, CD133 (−) Huh7 cells (freshly MACS-sorted). Format: cell-based. Here is the method: as §1

Series [3] has as its system CD133 (+) Huh7 cells. Kind of series: Tumor spheroid formation assay. Format: cell-based, human. The following applies: CD133 (+) group; ATRA 5 μg/ml, SAHA 0.5 μg/ml; 2 weeks. Here is the method: Freshly sorted CD133(+)/(−) Huh7 cells were plated in a low binding culture plate (NUNC 145397) containing 100 cells per well in 100 μl of culture medium with ATRA (5 μg/ml), SAHA (0.5 μg/ml), or a combination of both. After 2 weeks, colony numbers were counted.

In series [4] the test system is CD133 (+) Huh7 cells. Put plainly: In vivo tumorigenicity, CD133 (+) Huh7 cells in NOG mice. The arrangement: species or system mouse. As to the method:
The TUNEL staining was performed according to the manufacturer's instructions (4810-30-K, TREVIGEN). In brief, paraffin-embedded tumor sections from each group were de-paraffinized, re-hydrated, and washed twice in PBS. Samples were covered with Proteinase K solution for 30 minutes at room temperature and then washed two times in deionized water. Slides were immersed in quenching solution for 5 minutes at room temperature and then washed in PBS. Slides were incubated in TdT labeling buffer for 5 minutes, immersed with labeling reaction mix, and incubated at 37° C. for 1 hour in a humidity chamber. Samples were immersed in TdT stop buffer for 5 minutes and then washed twice in deionized water for 5 minutes each at room temperature. Samples were covered with Strep-HRP solution and incubated for 10 minutes at 37° C. and washed twice in PBS. Samples were incubated in DAB solution for 5 minutes and then washed in deionized water several times. The samples were counterstained with Methyl Green and mounted on slides for observation.
CD133 was conjugated to the terminal amine functionality on a polyethylene glycol block of polylactide-polyethylene glycol (PLA-PEG) as previously described (Swaminathan et al., 2013). PLGA (30 mg) was dissolved in 1 ml chloroform containing ATRA (6 mg). An oil-in-water emulsion was formed by emulsifying the polymer drug solution in 6 ml of 2.5% w/v aqueous PVA solution by sonication (Sonicator®XL, Misonix, N.Y.) for 5 minutes in an ice bath. The PLA-PEG-CD133 conjugate was dissolved in chloroform (8 mg/100 μl) and added to the oil-in-water emulsion with stirring. The emulsion was stirred for 18 hours at ambient conditions followed by 2 hours under vacuum to remove residual chloroform. Nanoparticles were recovered by ultracentrifugation (35,000 rpm for 35 minutes at 4° C.; OptimaTMLE-80K, Beckman, Palo Alta, Calif.) and washed three times with deionized water to remove excess PVA and unencapsulated drugs. The nanoparticle suspension was then lyophilized (Labconco, FreeZone 4.5, Kansas City, Mo.). Before injection, the lyophilized nanoparticles were re-dissolved in PBS and filtered with a 0.22 micron filter.
A half million freshly sorted CD133 (+) TICs were suspended in 100 μl of Matrigel™ (BD) and injected subcutaneously into NOD/Shi-scid/IL-2Rγ^null(NOG) mice, six mice per group. After the tumor volume reached 100 mm^3, animals received one intravenous dose of CD133-conjugated RA nanoparticle (5 μg/ml) and SAHA (0.5 μg/ml) daily. The animals were monitored regularly for tumor growth and survival every day. All animals work was performed according to national and international guidelines. Animal studies were based on a protocol approved by the Institutional Animal Care and Use Committee at University of Southern California.

Series [5] concerns TICs. Put plainly: RNA sequencing of drug treated TICs. It counts as cell-based, mouse. The following applies: ATRA 5 μg/ml, 16 hours. Here is the method:
RNA sequencing samples were collected at 16 hours of treatment with ATRA (5 μg/ml), SAHA (0.5 μg/ml) or combination treatment. Total RNA for RNA sequencing was extracted using RNeasy Plus Mini Kit (Qiagen), which includes a DNA depletion column. DNase I treatment and rRNA depletion with Tibozero technology were performed before RNA sequencing. Sample quantity and quality was verified by spectrophotometry (NanoDrop 1000), fluorimetry (Qubit), and the Aglient Bioanalyzer 2100 profiler. RNA Integrity Number (RIN) values of >7.0 and OD260/280=2.0-2.2 were used for RNA-seq library preparation. Extracted RNA (1 μg) was used for RNA sequencing (Illumina HiSeq2500 system). Sequenced reads were cleaned according to a rigorous pre-processing workflow (Trimmomatic-0.32) before mapping them to the mouse genome (mm10) using SHRiMP2.2.3 (http://compbio.cs.toronto.edu/shrimp/). Cufflinks2.0.2 (cuffdiff2-Running Cuffdiff) was then used to perform differential expression analysis with a FDR cutoff of 0.05 (95% confidence interval). A Perl script was used after differential expression analysis to improve the readability of the results files. Quality control information was generated via Fastqc: www.bioinformatics.babraham.ac.uk/projects/fastqc/. […] All gene expression profiles were analyzed by Partek Flow, Ingenuity Pathway Analysis and Gene Set Enrichment Analysis.

The mark [6] stands for this setting: NOG mice, CD133 (+) Huh7 tumors.

Values joined by “and” are separate entries in the source; they are usually repeats but may differ in a detail not shown here. Equal values may be shown once.

In series [1] (20 μg/ml, 48 hours), `CC1=C(/C=C/C(C)=C/C=C/C(C)=C/C(=O)O)C(C)(C)CCC1` [ATRA, all-trans retinoic acid] displayed a viability at 20 µg/mL of 41.4%. The IC50 in series [1] (CD133 killing effect, FIG. 44A) was 4.06 µg/mL and 13.5 µM. In addition, the viability at 48 h, 20 μg/ml in series [2] amounted to 72%. In addition, in series [3], the “reduction of colony numbers, tumor spheroid formation” value is reported as 83%. In addition, in series [4] (ATRA 5 μg/ml in CD133 antibody-conjugated nanoparticles, SAHA 0.5 μg/ml, after 4 days of treatment), the tumor growth entry is “did not reduce or even promote tumor growth”. Besides, in series [4] (setting [6]), the “TUNEL staining of tumors” value is recorded as “TUNEL-positive tumor cells”; the “tumor morphology, hematoxylin and eosin stained sections” value is recorded as “necrotic regions”. Also, the “genes differentially expressed from the controls” value in series [5] came to 189 genes.
